Tests used:
Mu-type opioid receptor = Mu-type opioid receptor (Rattus norvegicus, UniProt P33535); experiment: Binding affinity against Opioid receptor mu 1 from rat brain membranes using [3H]DAMGO
[1] = target: Delta-type opioid receptor (Rattus norvegicus, UniProt P33533); experiment: Binding affinity against Opioid receptor delta 1 from rat brain membranes using [3H]DADLE
[2] = target: Kappa-type opioid receptor (Cavia porcellus, UniProt P41144); experiment: Binding affinity against Opioid receptor kappa 1 from guinea pig brain membranes using [3H]U-69593
Kappa-type opioid receptor, sequence (P41144 whole entry): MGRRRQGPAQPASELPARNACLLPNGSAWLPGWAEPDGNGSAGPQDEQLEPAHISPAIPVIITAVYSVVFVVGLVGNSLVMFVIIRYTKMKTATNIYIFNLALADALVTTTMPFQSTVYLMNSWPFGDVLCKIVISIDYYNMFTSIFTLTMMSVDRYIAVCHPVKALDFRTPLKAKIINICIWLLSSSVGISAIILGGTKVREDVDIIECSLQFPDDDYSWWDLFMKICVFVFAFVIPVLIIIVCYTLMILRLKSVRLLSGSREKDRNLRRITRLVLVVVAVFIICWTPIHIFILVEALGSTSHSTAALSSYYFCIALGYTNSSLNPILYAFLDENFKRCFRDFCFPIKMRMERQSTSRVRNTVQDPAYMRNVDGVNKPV

Mu-type opioid receptor, sequence (P33535 whole entry): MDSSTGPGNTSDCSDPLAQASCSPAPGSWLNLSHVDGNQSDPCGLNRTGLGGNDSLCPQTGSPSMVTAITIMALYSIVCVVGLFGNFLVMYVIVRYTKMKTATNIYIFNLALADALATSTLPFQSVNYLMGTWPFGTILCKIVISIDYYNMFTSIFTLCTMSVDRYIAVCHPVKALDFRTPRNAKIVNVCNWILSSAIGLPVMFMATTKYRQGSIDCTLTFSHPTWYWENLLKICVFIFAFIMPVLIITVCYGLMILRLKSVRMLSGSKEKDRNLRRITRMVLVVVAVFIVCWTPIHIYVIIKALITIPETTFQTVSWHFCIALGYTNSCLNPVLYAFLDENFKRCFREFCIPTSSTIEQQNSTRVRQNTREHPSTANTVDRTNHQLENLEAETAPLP
Delta-type opioid receptor, sequence (P33533 whole entry): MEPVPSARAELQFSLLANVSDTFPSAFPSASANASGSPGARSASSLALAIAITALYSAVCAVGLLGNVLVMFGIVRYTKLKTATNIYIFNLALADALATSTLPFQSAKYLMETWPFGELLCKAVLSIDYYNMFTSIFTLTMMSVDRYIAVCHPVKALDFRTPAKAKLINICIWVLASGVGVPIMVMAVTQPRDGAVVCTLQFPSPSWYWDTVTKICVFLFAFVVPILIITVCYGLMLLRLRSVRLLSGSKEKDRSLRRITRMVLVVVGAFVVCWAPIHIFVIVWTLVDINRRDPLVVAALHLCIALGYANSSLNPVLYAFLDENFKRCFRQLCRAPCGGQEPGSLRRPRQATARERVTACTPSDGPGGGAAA

Row | SMILES | Ki (Mu-type opioid receptor) [nM] | Ki [1] [nM] | Ki [2] [nM]
1 | CO[C@@]12CCC(=O)CC13CCN(CC1CC1)C2Cc1cccc(OCCCc2ccccc2)c13 (some centres undefined) | 43.7 | 1410 | 209
2 | CCCCCN1CC[C@]23c4c5ccc(O)c4O[C@@H]2c2[nH]c4ccccc4c2C[C@@]3(O)[C@H]1C5 | 2820 | 15.8 | 2000
3 | CN1CCC23c4c5ccc(O)c4O[C@H]2c2ncc(-c4ccc(Cl)cc4)cc2C[C@@]3(O)C1C5 (some centres undefined) | 229 | 3.89 | 468
4 | C=C(N)NCCC(=O)NC1CC2CC(c3cccc(O)c3)(C1)C(C)CN2CCCc1ccccc1 (centres undefined) | 5.25 | 56.2 | 23.4
5 | Oc1ccc2c3c1O[C@H]1c4ncc(-c5ccc(Cl)cc5)cc4C[C@@]4(O)C(C2)N(CC2CC2)CCC314 (some centres undefined) | 51.3 | 2.19 | 20
6 | Oc1ccc2c3c1O[C@@H]1c4[nH]c5cccc(-c6ccccc6)c5c4C[C@@]4(O)[C@@H](C2)N(CC2CC2)CC[C@]314 | 1510 | 52.5 | 2950
7 | CC(C)CCN1CC[C@]23c4c5ccc(O)c4O[C@@H]2c2[nH]c4ccccc4c2C[C@@]3(O)[C@H]1C5 | 1290 | 3.8 | 676
8 | CN1CCC23c4c5ccc(O)c4O[C@H]2c2ncc(-c4ccc(Cl)cc4)cc2C[C@H]3C1C5 (some centres undefined) | 148 | 4.37 | 77.6
9 | CCCCCCN1CC[C@]23c4c5ccc(O)c4O[C@@H]2c2[nH]c4ccccc4c2C[C@@]3(O)[C@H]1C5 | 4570 | 25.7 | 3090
10 | CN1CC[C@]23c4c5ccc(O)c4O[C@@H]2c2[nH]c4ccccc4c2C[C@H]3[C@H]1C5 | 708 | 2.4 | 
11 | Oc1ccc2c3c1O[C@H]1c4ncncc4C[C@@]4(O)C(C2)N(CC2CC2)CCC314 (some centres undefined) | 4.17 | 3.47 | 6.31
12 | CN1CCC23c4c5ccc(O)c4O[C@H]2c2ncc(-c4ccccc4)cc2C[C@@]3(O)C1C5 (some centres undefined) | 25.7 | 2.88 | 363
13 | CC1CN(CCCc2ccccc2)C2CC(NC(=O)CCCN(C)C)CC1(c1cccc(O)c1)C2 (centres undefined) | 57.5 | 1450 | 12
14 | CN1CCC23c4c5ccc(O)c4O[C@H]2c2ncc(-c4ccccc4)cc2C[C@H]3C1C5 (some centres undefined) | 24 | 4.9 | 81.3
15 | Oc1ccc2c3c1O[C@@H]1c4[nH]c5cccc(Oc6ccccc6)c5c4C[C@@]4(O)[C@@H](C2)N(CC2CC2)CC[C@]314 | 1450 | 67.6 | 1320
16 | Oc1ccc2c3c1O[C@@H]1c4[nH]c5cc(-c6ccccc6)ccc5c4C[C@@]4(O)[C@@H](C2)N(CC2CC2)CC[C@]314 | 1290 | 18.2 | 631
17 | CCCCOc1cccc2c1C13CCN(CC4CC4)C(C2)[C@]1(OCCCc1ccccc1)CCC(=O)C3 (some centres undefined) | 14.8 | 234 | 151
18 | CC(C)N1CC[C@]23c4c5ccc(O)c4O[C@@H]2c2[nH]c4ccccc4c2C[C@@]3(O)[C@H]1C5 |  | 33.1 | 6170
19 | C/C=C/CN1CC[C@]23c4c5ccc(O)c4O[C@@H]2c2[nH]c4ccccc4c2C[C@@]3(O)[C@H]1C5 | 1200 | 7.41 | 955
20 | COc1ccc2c(c1O)[C@]13CCN(C)C(C2)[C@@H]1CC1c2ccccc2NC1C3 (some centres undefined) | 2820 | 93.3 | 
21 | O=C(Oc1cccc2c3c([nH]c12)[C@H]1Oc2c(O)ccc4c2[C@@]12CCN(CC1CC1)[C@H](C4)[C@]2(O)C3)c1ccccc1 | 158 | 3.09 | 257

Row | SMILES | Ki (Mu-type opioid receptor) [nM] | Ki [1] [nM] | Ki [2] [nM]
22 | Cc1cc(-c2ccccc2)c2c(n1)[C@@H]1Oc3c(O)ccc4c3C13CCN(CC1CC1)C(C4)[C@]3(O)C2 (some centres undefined) | 155 | 126 | 676
23 | C=C(C)CN1CC[C@]23c4c5ccc(OC)c4O[C@@H]2c2[nH]c4ccccc4c2C[C@@]3(O)[C@H]1C5 |  | 501 | 
24 | C/C=C/CN1CC[C@]23c4c5ccc(O)c4O[C@@H]2c2[nH]c4ccccc4c2C(C)[C@H]3[C@H]1C5 (some centres undefined) | 1020 | 2.29 | 120
25 | CCCCCCCN1CC[C@]23c4c5ccc(O)c4O[C@@H]2c2[nH]c4ccccc4c2C[C@@]3(O)[C@H]1C5 | 4570 | 79.4 | 
26 | C=C(C)CN1CC[C@]23c4c5ccc(O)c4O[C@@H]2c2[nH]c4ccccc4c2C(C)[C@H]3[C@H]1C5 (some centres undefined) | 1070 | 8.91 | 851
27 | COc1cccc2c1C13CCN(CC4CC4)C(C2)[C@]1(OCCCc1ccccc1)CCC(=O)C3 (some centres undefined) | 0.339 | 17 | 7.41
28 | CCN1CC[C@]23CC4Nc5ccccc5C4C[C@@]2(O)C1Cc1ccc(OC)c(O)c13 (some centres undefined) | 794 | 692 | 
29 | C=C(C)CN1CCC23c4c5ccc(O)c4O[C@H]2C(=O)/C(=C\c2ccccc2)C[C@@]3(O)C1C5 (some centres undefined) | 4470 | 209 | 4470
30 | COc1ccc2c(c1O)[C@]13CCN(C)C(C2)[C@]1(O)CC1c2ccccc2NC1C3 (some centres undefined) | 2820 | 219 | 
31 | CCCCCCOc1cccc2c1C13CCN(CC4CC4)C(C2)[C@]1(OC)CCC(=O)C3 (some centres undefined) | 44.7 | 1170 | 437
32 | Oc1ccc2c3c1O[C@@H]1c4[nH]c5ccc(/C=C/c6ccccn6)cc5c4C[C@@]4(O)[C@@H](C2)N(CC2CC2)CC[C@]314 | 75.9 | 3.72 | 20
33 | Cc1ccc2c3c1O[C@@H]1c4[nH]c5ccccc5c4C[C@@]4(O)[C@@H](C2)N(CC2CC2)CC[C@]314 |  | 70.8 | 
34 | COc1cccc2c1[C@]13CCN(CC4CC4)[C@H](C2)[C@]1(OC)CCC(=O)C3 [CYPRODIME] | 10.7 | 417 | 110
35 | O[C@@]12Cc3c([nH]c4ccccc34)[C@H]3Oc4c(-c5ccco5)ccc5c4[C@@]31CCN(CC1CC1)[C@@H]2C5 |  | 955 | 
36 | CN1CCC23c4c5ccc(O)c4O[C@H]2c2ncc(-c4ccc(Cl)cc4Cl)cc2C[C@H]3C1C5 (some centres undefined) | 97.7 | 1.1 | 407
37 | COc1ccc2c(c1O)[C@]13CCN(CC4CC4)C(C2)[C@]1(O)CC1c2ccccc2NC1C3 (some centres undefined) | 1860 | 21.9 | 3160
38 | C=Cc1ccc2c3c1O[C@@H]1c4[nH]c5ccccc5c4C[C@@]4(O)[C@@H](C2)N(CC2CC2)CC[C@]314 |  | 61.7 | 17800
39 | CC1CN(CCCc2ccccc2)C2CC(N)CC1(c1cccc(O)c1)C2 (centres undefined) | 3.31 | 14.8 | 123
40 | O[C@@]12Cc3c([nH]c4ccccc34)[C@H]3Oc4c(-c5ccccc5)ccc5c4[C@@]31CCN(CC1CC1)[C@@H]2C5 |  | 10500 | 
41 | O=C1CC[C@@]2(OCCCc3ccccc3)C3Cc4cccc(O)c4C2(CCN3CC2CC2)C1 (some centres undefined) | 0.398 | 5.01 | 5.89
42 | CC1c2c([nH]c3ccccc23)[C@H]2Oc3c(O)ccc4c3[C@@]23CCN(C)[C@H](C4)[C@H]13 (some centres undefined) | 240 | 0.708 | 126

Row | SMILES | Ki (Mu-type opioid receptor) [nM] | Ki [1] [nM] | Ki [2] [nM]
43 | CC1c2c([nH]c3ccccc23)[C@H]2Oc3c(O)ccc4c3[C@@]23CCN(CC2CC2)[C@H](C4)[C@H]13 (some centres undefined) | 66.1 | 2.29 | 36.3
44 | CC(C)CN1CC[C@]23c4c5ccc(O)c4O[C@@H]2c2[nH]c4ccccc4c2C[C@@]3(O)[C@H]1C5 | 2570 | 3.8 | 646
45 | COc1ccc2c3c1O[C@@H]1c4[nH]c5ccccc5c4C[C@H]4[C@@H](C2)N(C)CC[C@]314 |  | 95.5 | 
46 | CCN1CC[C@]23CC4Nc5ccccc5C4C[C@H]2C1Cc1ccc(OC)c(O)c13 (some centres undefined) | 1350 | 513 | 3630
47 | CCCCC1c2c([nH]c3ccccc23)[C@H]2Oc3c(OC)ccc4c3[C@@]23CCN(C)[C@H](C4)[C@H]13 (some centres undefined) |  | 372 | 
48 | Oc1ccc2c3c1O[C@H]1c4nccc(-c5ccccc5)c4C[C@@]4(O)C(C2)N(CC2CC2)CCC314 (some centres undefined) | 191 | 72.4 | 263
49 | O=C1CC[C@@]2(OCCCc3ccccc3)C3Cc4cccc5c4C2(CCN3CC2CC2)C1O5 (some centres undefined) | 0.832 | 45.7 | 22.9
50 | Oc1ccc2c3c1O[C@H]1c4ncccc4C[C@@]4(O)C(C2)N(CC2CC2)CCC314 (some centres undefined) | 1.51 | 0.776 | 8.71
51 | Oc1ccc2c3c1O[C@H]1c4[nH]c5ccccc5c4C[C@@]4(O)[C@@H](C2)N(CC2CC2)CC[C@]314 [NALTRINDOLE] |  |  | 26.9
52 | Oc1ccc2c3c1O[C@H]1c4nc(-c5ccccc5)ncc4C[C@@]4(O)C(C2)N(CC2CC2)CCC314 (some centres undefined) | 21.9 | 15.8 | 11
53 | C=C(C)CN1CCC23c4c5ccc(O)c4O[C@H]2C(=O)C2(CCc4ccccc42)C[C@@]3(O)C1C5 (some centres undefined) | 2000 | 40.7 | 1000
54 | C=C(C)CN1CCC23c4c5ccc(OC)c4O[C@H]2c2ncc(-c4ccc(Cl)cc4)cc2C[C@@]3(O)C1C5 (some centres undefined) |  | 257 | 3240
55 | C=C(C)CN1CCC23c4c5ccc(O)c4O[C@H]2c2ncc(-c4ccc(Cl)cc4)cc2C[C@@]3(O)C1C5 (some centres undefined) |  | 15.8 | 302
56 | C=C(C)CN1CCC23c4c5ccc(OC)c4O[C@H]2c2[nH]ncc2C[C@@]3(O)C1C5 (some centres undefined) |  | 2400 | 3090
57 | COc1ccc2c3c1O[C@@H]1c4[nH]c5ccccc5c4C(C)[C@H]4[C@@H](C2)N(C)CC[C@]314 (some centres undefined) |  | 26.9 | 
58 | Oc1cccc(-c2ccc3c4c2O[C@@H]2c5[nH]c6ccccc6c5C[C@@]5(O)[C@@H](C3)N(CC3CC3)CC[C@]425)c1 |  | 1620 | 
59 | C=C(C)CN1CCC23c4c5ccc(OC)c4O[C@H]2C(=O)/C(=C\c2ccccc2)C[C@@]3(O)C1C5 (some centres undefined) |  | 3390 | 
60 | CCO[C@@]12Cc3c([nH]c4ccccc34)[C@]3(C)Oc4c(O)ccc5c4[C@@]31CCN(C)[C@@H]2C5 |  |  | 288
61 | C=C(C)CN1CCC23c4c5ccc(OC)c4O[C@H]2c2oc4ccccc4c2C[C@@]3(O)C1C5 (some centres undefined) |  | 43.7 | 
